Measured values taken from ChEMBL document CHEMBL6114992, “Design, synthesis, biological evaluation, and mechanism of action of new pyrazines as anticancer agents in vitro and in vivo” (Bioorg Med Chem, 2025).

How the values were obtained:
Type in all cases: functional, cell-based
THP-1 = assay: Antiproliferative activity against human THP-1 cells assessed as inhibition of cell growth incubated for 72 hrs by MTT assay; details: THP-1, 72 h
KG-1 = assay: Antiproliferative activity against human KG-1 cells assessed as inhibition of cell growth incubated for 72 hrs by MTT assay; details: KG-1, 72 h
U-937 = assay: Antiproliferative activity against human U-937 cells assessed as inhibition of cell growth incubated for 72 hrs by MTT assay; details: U-937, 72 h
SK-OV-3 = assay: Antiproliferative activity against human SK-OV-3 cells assessed as inhibition of cell growth incubated for 72 hrs by MTT assay; details: SK-OV-3, 72 h
[1] = Antiproliferative activity against human SK-OV-3/Taxol cells assessed as inhibition of cell growth incubated for 72 hrs by MTT assay; details: SK-OV-3, 72 h

Structure (SMILES)	IC50 (THP-1)	IC50 (KG-1)	IC50 (U-937)	IC50 (SK-OV-3)	IC50 [1]
CSc1ccc(/C=C/C(=O)c2nccnc2C)cc1	6.01 µM	6.84 µM	3.9 µM	4.72 µM	6.8 µM
Cc1ccccc1/C=C/C(=O)c1cnccn1	15.7 µM	15.2 µM	23.6 µM	31.2 µM	33.7 µM
CCc1nccnc1C(=O)/C=C/c1cccc(C)c1	7.78 µM	10.3 µM	6.89 µM	4.52 µM	5.6 µM
Cc1nccnc1C(=O)/C=C/c1ccc(C#N)cc1	0.72 µM	1.01 µM	2.08 µM	4.49 µM	4.63 µM
Cc1nccnc1C(=O)/C=C/c1ccccc1N1CCOCC1	11.5 µM	5.63 µM	14.3 µM	2.57 µM	3.24 µM
Cc1nccnc1C(=O)/C=C/c1ccc(Br)cc1	31.1 µM	20.9 µM	11.3 µM	12.7 µM	13.7 µM
CCc1nccnc1C(=O)/C=C/c1ccc(OC)cc1	6.02 µM	22.7 µM	5.24 µM	11 µM	9.88 µM
CCc1nccnc1C(=O)/C=C/c1ccc(F)cc1	7.23 µM	3.57 µM	2.38 µM	3.11 µM	3.5 µM
Cc1nccnc1C(=O)/C=C/c1cccc(Cl)c1	1.35 µM	2.15 µM	1.6 µM	2.02 µM	1.57 µM
CCc1nccnc1C(=O)/C=C/c1cccc(C#N)c1	0.98 µM	3.91 µM	0.62 µM	2.53 µM	2.89 µM
Cc1cccc(/C=C/C(=O)c2cnccn2)c1	20.3 µM	9.84 µM	16.3 µM	28.5 µM	25.9 µM
CCc1nccnc1C(=O)/C=C/c1ccc(C)cc1	10.5 µM	10 µM	9.32 µM	6.26 µM	7.33 µM
CCc1nccnc1C(=O)/C=C/c1ccc(SC)cc1	2.67 µM	9.34 µM	4.29 µM	7.94 µM	8.12 µM
CCc1nccnc1C(=O)/C=C/c1ccc(Cl)cc1Cl	8.28 µM	5.99 µM	9.99 µM	6.99 µM	6.81 µM
CCc1nccnc1C(=O)/C=C/c1cccs1	10.3 µM	19.6 µM	10 µM	9.89 µM	10.9 µM
Cc1nccnc1C(=O)/C=C/c1ccc[nH]1	5.72 µM	7.15 µM	6.21 µM	4.81 µM	5.38 µM
CCc1nccnc1C(=O)/C=C/c1ccccc1[N+](=O)[O-]	1.5 µM	3.68 µM	1.46 µM	2.49 µM	4.12 µM
O=C(/C=C/c1ccccc1N1CCOCC1)c1cnccn1	8.39 µM	2.13 µM	7.58 µM	2.43 µM	3.04 µM
Cc1nccnc1C(=O)/C=C/c1ccc(S(C)(=O)=O)cc1	1.46 µM	4.37 µM	0.76 µM	3.21 µM	3.31 µM

Structure (SMILES)	IC50 (THP-1)	IC50 (KG-1)	IC50 (U-937)	IC50 (SK-OV-3)	IC50 [1]
CCc1nccnc1C(=O)/C=C/c1ccc(C(C)(C)C)cc1	10.2 µM	22.5 µM	15 µM	11.2 µM	12.2 µM
CC(/C=C/C(=O)c1cnccn1)=C\c1ccccc1	19.4 µM	44.5 µM	22.8 µM	29.6 µM	30.6 µM
CCc1nccnc1C(=O)/C=C/c1ccc(F)cc1F	5.71 µM	25.7 µM	8.02 µM	5.24 µM	7.97 µM
O=C(/C=C/c1cc2c(cc1[N+](=O)[O-])OCO2)c1cnccn1	2.02 µM	11 µM	6.87 µM	9.99 µM	6.57 µM
CCc1nccnc1C(=O)/C=C/c1ccccc1N1CCOCC1	3.44 µM	5.46 µM	4.45 µM	4.05 µM	3.96 µM
CCc1nccnc1C(=O)/C=C/c1ccccc1	23.8 µM	3.71 µM	1.99 µM	4.54 µM	5.4 µM
CC(/C=C/C(=O)c1nccnc1C)=C\c1ccccc1	4.53 µM	4.78 µM	2.13 µM	7.3 µM	6.45 µM
O=C(/C=C/c1ccc(C(F)(F)F)cc1)c1cnccn1	8.3 µM	7.87 µM	11.9 µM	9.72 µM	10.4 µM
Cc1nccnc1C(=O)/C=C/c1cccc(Br)c1	1.64 µM	0.08 µM	1.58 µM	1.63 µM	1.46 µM
Cc1nccnc1C(=O)/C=C/c1ccccc1F	5.5 µM	5.38 µM	22.6 µM	10.2 µM	10.7 µM
CCc1nccnc1C(=O)/C=C/c1cccc(Cl)c1	5.95 µM	3.66 µM	1.23 µM	4.69 µM	5.11 µM
CCc1nccnc1C(=O)/C=C/C=C/c1ccc(F)cc1	7.16 µM	6.91 µM	5.25 µM	7.98 µM	8.25 µM
CCc1nccnc1C(=O)/C=C/c1ccc(OC)c(OC)c1	8.36 µM	9.45 µM	7.95 µM	6.71 µM	7.92 µM
O=C(/C=C/c1cccc(Br)c1)c1cnccn1	11 µM	23.4 µM	8.19 µM	13.5 µM	17 µM
Cc1nccnc1C(=O)/C=C/c1ccc(-c2ccccc2)cc1	7.63 µM	3.25 µM	2.38 µM	1.66 µM	1.67 µM
CCc1nccnc1C(=O)/C=C/c1csc2ccccc12	2.39 µM	14.4 µM	1.76 µM	2.06 µM	2.29 µM
Cc1nccnc1C(=O)/C=C/c1ccc(C(F)(F)F)cc1	5.23 µM	5.66 µM	3.23 µM	7.57 µM	8.99 µM
Cc1cccc(/C=C/C(=O)c2nccnc2C)c1	5 µM	5.43 µM	3.37 µM	2.37 µM	1.55 µM
Cc1nccnc1C(=O)/C=C/c1cccc([N+](=O)[O-])c1	2.23 µM	4.76 µM	2.46 µM	5.62 µM	6.38 µM

Structure (SMILES)	IC50 (THP-1)	IC50 (KG-1)	IC50 (U-937)	IC50 (SK-OV-3)	IC50 [1]
CCc1nccnc1C(=O)/C=C/c1ccccc1C	4.91 µM	22.9 µM	3.43 µM	8.68 µM	10.8 µM
CCc1nccnc1C(=O)/C=C/c1cccc(Cl)c1Cl	14.5 µM	10.5 µM	4 µM	11.3 µM	11.3 µM
CCc1nccnc1C(=O)/C=C/C=C/c1ccccc1	21.6 µM	19.1 µM	7.76 µM	33 µM	34 µM
Cc1nccnc1C(=O)/C=C/c1ccccc1Br	1.95 µM	2.75 µM	1.23 µM	3.22 µM	2.72 µM
O=C(/C=C/c1ccc(Br)cc1)c1cnccn1	23.7 µM	20.4 µM	> 50 µM	> 50 µM	> 50 µM
O=C(/C=C/c1ccccc1Br)c1cnccn1	15.5 µM	8.94 µM	11.6 µM	12.1 µM	14.1 µM
Cc1ccc(/C=C/C(=O)c2nccnc2C)cc1	1.93 µM	3.83 µM	2.6 µM	3.83 µM	3.3 µM
COc1ccc(/C=C/C(=O)c2cnccn2)cc1OC	6.55 µM	4.84 µM	4.79 µM	> 50 µM	> 50 µM
CCc1nccnc1C(=O)/C=C/c1cccc(Br)c1	6.69 µM	9.32 µM	3.59 µM	3.23 µM	4.7 µM
CCc1nccnc1C(=O)/C=C/c1ccc2c(c1)OC(F)(F)O2	5.36 µM	9.09 µM	5.48 µM	3.74 µM	3.72 µM
Cc1nccnc1C(=O)/C=C/c1cc2ccccc2o1	1.9 µM	3.3 µM	2.93 µM	4.63 µM	1.74 µM
CCc1nccnc1C(=O)/C=C/c1cc2ccccc2o1	12.9 µM	22.5 µM	17.4 µM	17.3 µM	16.4 µM
Cc1nccnc1C(=O)/C=C/c1ccccn1	6.22 µM	5.39 µM	6.55 µM	10 µM	11.1 µM
CCc1nccnc1C(=O)/C=C/c1ccc(N(CC)CC)cc1	29.5 µM	24.7 µM	30.4 µM	> 50 µM	> 50 µM
O=C(/C=C/c1ccc(F)cc1)c1cnccn1	> 50 µM	> 50 µM	> 50 µM	> 50 µM	> 50 µM
CCc1nccnc1C(=O)/C=C/c1cccc([N+](=O)[O-])c1	1.56 µM	2.16 µM	1.58 µM	3.5 µM	2.67 µM
O=C(/C=C/C=C/c1ccccc1)c1cnccn1	14.1 µM	22.3 µM	22.4 µM	> 50 µM	> 50 µM
O=C(/C=C/c1cccc([N+](=O)[O-])c1)c1cnccn1	5.29 µM	10.3 µM	8 µM	> 50 µM	> 50 µM
O=C(/C=C/c1ccc(Cl)cc1)c1cnccn1	10.2 µM	12.3 µM	11.5 µM	9.91 µM	10.4 µM
